Measured values published in US20250340510A1, “Substituted Phenylbenzenesulfonamide Derivatives and Uses Thereof” (Nine Square Therapeutics Corporation, priority 2022, published 2025).

Assays:
TFEB = TFEB translocation assay in HeLa cells (nuclear to cytoplasmic TFEB ratio, high-content imaging); assay type: cell-based; details: Homo sapiens, 1.5 h, 90 mins incubation at 37° C., ratio of nuclear to cytoplasmic TFEB
Procedure: Example B2. TFEB Translocation Assay
Rabbit TFEB antibody, Cell Signaling Technology #4240S
PFA 16% MeOH-free, Election Microscopy Sciences #50-980-487
HCS CellMask Deep Red, ThermoFisher Scientific #H32721
Plates: Perkin Elmer Phenoplate #605730 black optically clear, tissue culture treated 384-well plate
Example B2.2 Method, Day 1: Cells Seeded in 384WP
Cells were seeded in the afternoon. The outer one row of the plate was not used to avoid outer well edge effects.
HeLa cells were detached using trypsin, and the cells were counted using a cell counter.
4000 HeLa cells were seeded per well in […] growth media (DMEM with 10% FBS, 1 mM sodium pyruvate and Pen-Strep).
Example B2.3 Method, Day 2: Assay with TRPML1 Compounds+Staining
Compounds were added to cells using a Tecan D300e dispenser.
Cells were incubated for 90 mins at 37° C. with the compounds (compound range: 80 nM-[…] (2× step dilution—8 dilution steps, 3 replicates per condition)
The cells were fixed by adding 16.5 μL of 16% PFA (4% final) and incubating for 15 min at room temperature.
The cells were washed with 3× in PBS-TX (PBS+0.1% Triton X-100)−1×100 μL followed by 2×50 μL.
The cells were blocked and permeabilized in 30 μL of blocking buffer (PBS-TX+5% goat serum) for 1 h.
The cells were incubated with TFEB antibody (1:200, CST 4240S) in 30 μL blocking buffer overnight at 4° C. The plates were kept damp to avoid evaporation.
Example B2.4 Method, Day 3: Staining+Imaging
The cells were washed 3× in PBS-TX—3×100 μL with a Biotek EL406 washer.
The cells were incubated with Goat anti-Rb Alexa-Fluor 488 (1:2000), cell mask (1:10,000) and Hoechst (1:10,000) in 30 μL blocking buffer for 1 h at room temperature. The solution was dispensed using a 5 μL peristaltic cassette (EL406).
The cells were washed 3× in PBS-TX—3×100 μL with a EL406 washer, then […] PBS was dispensed using a 5 μL peristaltic cassette (EL406).
The cells were imaged on an Operetta CLS High-content imaging system using a 20× water immersion objective (NA 1.0) the same day.
Image analysis was performed using Harmony V4.9 (Perkin Elmer). Briefly, nuclei were segmented from background-corrected images using Hoechst intensity, and cell body segmented using HCS CellMask DeepRed. A sliding parabola filter was applied to the AlexaFluor 488 channel (TFEB), before sum pixel intensity in the nuclear and cytoplasmic regions was calculated. A ratio of nuclear to cytoplasmic TFEB was used to define TFEB translocation from the cytosolic to nuclear compartment. The EC50 values derived by fitting the data to a sigmoidal dose response curve using Prism 9 (Graphpad).

TRPML1 = TRPML1 (Homo sapiens, UniProt Q9GZU1); experiment: Calcium flux in HEK293 overexpressing TRPML1 plasma membrane variant (FLIPR, Calcium 6 dye); assay type: cell-based; details: HEK293/TRPML1-PM clone A5 cells; 4-parameter logistic fit; read-out: TRPML1 calcium flux (FLIPR) dose response: EC50
TRPML1, sequence (Q9GZU1 17-572 limits assumed): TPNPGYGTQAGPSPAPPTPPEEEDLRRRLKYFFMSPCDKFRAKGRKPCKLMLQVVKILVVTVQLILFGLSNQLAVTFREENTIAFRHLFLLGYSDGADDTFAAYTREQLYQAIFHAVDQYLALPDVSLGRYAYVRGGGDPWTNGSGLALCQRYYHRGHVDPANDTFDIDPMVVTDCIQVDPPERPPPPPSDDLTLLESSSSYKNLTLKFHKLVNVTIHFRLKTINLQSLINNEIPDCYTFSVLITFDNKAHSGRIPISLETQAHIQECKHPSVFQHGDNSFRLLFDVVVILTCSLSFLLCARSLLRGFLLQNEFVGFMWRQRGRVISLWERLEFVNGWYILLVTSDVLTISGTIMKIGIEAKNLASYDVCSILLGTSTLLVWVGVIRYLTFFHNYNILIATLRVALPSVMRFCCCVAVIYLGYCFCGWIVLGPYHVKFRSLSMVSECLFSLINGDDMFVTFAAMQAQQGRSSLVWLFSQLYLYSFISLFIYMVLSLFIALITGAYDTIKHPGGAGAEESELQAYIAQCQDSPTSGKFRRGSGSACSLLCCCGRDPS
Source text: Example B1. Calcium Flux in HEK293 Overexpressing TRPML1 Plasma Membrane Variant—Calcium 6 Dye
Cells: HEK293/TRPML1-PM clone A5, clonal cell line containing mutant TRPML1 (both N- and C-terminal dileucine targeting motifs deleted) that localizes to the plasma membrane
Plates: Perkin Elmer Viewplate cat. #6007460, black optically clear, tissue culture treated 384-well plate
Calcium dye: Molecular Devices FLIPR Calcium 6 Assay Kit, cat. #R8190 or Fluo-4 Direct from Thermo Fisher, cat. #F10471
Tips: Molecular Devices 384-well FLIPR Tetra black tips, cat. #9000-0764 Example B1.2 Method
HEK293/TRPML1-PM clone A5 cells were trypsinized from flasks, counted, then diluted in media to 15,000 cells per 25 μL, and seeded into a black, 384-well viewplate, and cultured overnight.
One vial of calcium 6 dye was diluted with 10 mL of assay buffer (HBSS+20 mM HEPES pH 7.4) and 25 μL of the dilution was added per well to the cells.
After incubating for 2 hours at 37° C., the plate was moved to the FLIPR in the read position.
The compounds were diluted in EMEM with 0.125% FBS to 5× concentration and loaded in a 384-well plate according to the desired plate map for the assay, including DMSO alone and carbachol controls, then the plate was moved to the FLIPR in the source 2 position.
A box of tips was placed in the source 1 position within the FLIPR to complete the assay set up.
Once the run was started, an initial baseline fluorescent measurement was performed for 10 seconds (470-495 nm excitation and 515-575 nm emission) prior to adding the compounds.
12.5 μL of 5× test compound, DMSO alone, or carbachol were added via the FLIPR and real-time fluorescence measurements were performed for an additional 170 seconds with 1 read per second.
The data was normalized to baseline by calculating maximum fluorescence minus minimum fluorescence and plotted as response (fold) over the baseline versus log ([…] concentration). The EC50 was determined using a 4-parameter logistic curve fit in Graphpad Prism 9.

Row | EC50 (TFEB; HeLa) | EC50 (TRPML1) | Compound | EC50 (TFEB)
1 | 516 nM | 347 nM | CN(c1ccccc1NS(=O)(=O)c1ccc(S(=O)(=O)N(C)C)cc1)C1CCOC1(C)C (stereo not drawn) [Compound 97, N1-(2-((2,2-dimethyltetrahydro-furan-3-yl)(methyl)amino)phenyl)-N4,N4-dimethylbenzene-1,4-disulfonamide] | –
2 | 450 nM | 190 nM | CN(c1ccccc1NS(=O)(=O)c1ccc(S(=O)(=O)N(C)C)cc1)C1(C)CCCCC1 [Compound 17, N1,N1-dimethyl-N4-(2-(methyl(1-methylcyclohexyl)amino)phenyl)benzene-1,4-disulfonamide] | –
3 | > 9900 nM | 1140 nM | CN(c1ccccc1NS(=O)(=O)c1ccc(S(=O)(=O)N(C)C)cc1)C1CCOC1 (stereo not drawn) [Compound 18, N1,N1-dimethyl-N4-(2-(methyl(tetrahydrofuran-3-yl)amino)phenyl)benzene-1,4-disulfonamide] | –
4 | 3290 nM | 812 nM | CN(c1ccccc1NS(=O)(=O)c1ccc(S(=O)(=O)N(C)C)cc1)C1CCOC(C)(C)C1 (stereo not drawn) [Compound 111, N1-(2-((2,2-dimethyltetrahydro-2H-pyran-4-yl)(methyl)amino)phenyl)-N4,N4-dimethylbenzene-1,4-disulfonamide] | –
5 | 6960 nM | 1340 nM | CN(Cc1cncs1)c1c(F)cccc1NS(=O)(=O)c1ccc(S(=O)(=O)N(C)C)cc1 [Compound 70, N1-(3-Fluoro-2-(methyl(thiazol-5-ylmethyl)amino)phenyl)-N4,N4-dimethylbenzene-1,4-disulfonamide] | –
6 | 117 nM | 46.6 nM | Cc1cccc(NS(=O)(=O)c2ccc(S(=O)(=O)N(C)C)cc2)c1N(C)C1CCCCC1 [Compound 98, N1-(2-(cyclohexyl(methyl)amino)-3-methylphenyl)-N4,N4-dimethylbenzene-1,4-disulfonamide] | –
7 | 676 nM | 242 nM | CCCN(C)c1c(Cl)cccc1NS(=O)(=O)c1ccc(S(=O)(=O)N(C)C)cc1 [Compound 74, N1-(3-chloro-2-(methyl(propyl)amino)phenyl)-N4,N4-dimethylbenzene-1,4-disulfonamide] | –
8 | 664 nM | 567 nM | CN(C)S(=O)(=O)c1ccc(S(=O)(=O)Nc2ccccc2N(CC2COC2)C2CCCCC2)cc1 [Compound 84, N1-(2-(Cyclohexyl(oxetan-3-ylmethyl)amino)phenyl)-N4,N4-dimethylbenzene-1,4-disulfonamide] | –
9 | 1000 nM | 447 nM | Cc1nc(CN(C)c2ccccc2NS(=O)(=O)c2ccc(S(=O)(=O)N(C)C)cc2)ccc1F [Compound 85, N1-(2-(((5-fluoro-6-methylpyridin-2-yl)methyl)(methyl)amino)phenyl)-N4,N4-dimethylbenzene-1,4-disulfonamide] | –
10 | 200 nM | 410 nM | CN(CC1CCCCC1)c1ccccc1NS(=O)(=O)c1ccc(S(=O)(=O)N(C)C)cc1 [Compound 23, N1-(2-((cyclohexylmethyl)(methyl)amino)phenyl)-N4,N4-dimethylbenzene-1,4-disulfonamide] | –
11 | 323 nM | 461 nM | CN(C)S(=O)(=O)c1ccc(S(=O)(=O)Nc2ccccc2N(CC(F)(F)F)C2CCCCC2)cc1 [Compound 81, N1-(2-(cyclohexyl(2,2,2-trifluoroethyl)amino)phenyl)-N4,N4-dimethylbenzene-1,4-disulfonamide] | –
12 | 2030 nM | 1560 nM | CN(CC1CC1)c1ccccc1NS(=O)(=O)c1ccc(S(=O)(=O)N(C)C)cc1 [Compound 14, N1-(2-((cyclopropylmethyl) (methyl)amino)phenyl)-N4,N4-dimethylbenzene-1,4-disulfonamide] | –
13 | – | 1240 nM | CN(c1ccc(Cl)cc1NS(=O)(=O)c1ccc(S(=O)(=O)N(C)C)cc1)C1CCCCC1 [Compound 1, N1-(5-chloro-2-(cyclohexyl(methyl)amino)phenyl)-N4,N4-dimethylbenzene-1,4-disulfonamide] | –

More lines, now with the values behind:

Row | Compound | EC50 (TFEB; HeLa) | EC50 (TRPML1) | EC50 (TFEB)
14 | CN(CC12CC(C)(C1)C2)c1ccccc1NS(=O)(=O)c1ccc(S(=O)(=O)N(C)C)cc1 [Compound 65, N1,N1-dimethyl-N4-(2-(methyl((3-methylbicyclo[1.1.1]pentan-1-yl)methyl)amino)phenyl)benzene-1,4-disulfonamide] | 396 nM | 319 nM | –
15 | CN(c1ccc(C#N)cc1NS(=O)(=O)c1ccc(S(=O)(=O)N(C)C)cc1)C1CCCCC1 [Compound 89, N1-(5-cyano-2-(cyclohexyl(methyl)amino)phenyl)-N4,N4-dimethylbenzene-1,4-disulfonamide] | – | 681 nM | 2400 nM
16 | CN(c1ccc(C(F)(F)F)cc1NS(=O)(=O)c1ccc(S(=O)(=O)N(C)C)cc1)C1CCCCC1 [Compound 110, N1-(2-(cyclohexyl(methyl)amino)-5-(trifluoromethyl)phenyl)-N4,N4-dimethylbenzene-1,4-disulfonamide] | – | 256 nM | 246 nM
17 | CN(Cc1cscn1)c1c(F)cccc1NS(=O)(=O)c1ccc(S(=O)(=O)N(C)C)cc1 [Compound 68, N1-(3-fluoro-2-(methyl(thiazol-4-ylmethyl)amino)phenyl)-N4,N4-dimethylbenzene-1,4-disulfonamide] | 2230 nM | 1030 nM | –
18 | Cc1cccc(NS(=O)(=O)c2ccc(S(=O)(=O)N(C)C)cc2)c1N(C)Cc1cncs1 [Compound 72, N1,N1-Dimethyl-N4-(3-methyl-2-(methyl(thiazol-5-ylmethyl)amino)phenyl)benzene-1,4-disulfonamide] | 1760 nM | 572 nM | –
19 | CN(CC1(C)COC1)c1ccccc1NS(=O)(=O)c1ccc(S(=O)(=O)N(C)C)cc1 [Compound 49, N1,N1-dimethyl-N4-(2-(methyl((3-methyloxetan-3-yl)methyl)amino)phenyl)benzene-1,4-disulfonamide] | – | 1140 nM | 7970 nM
20 | CN(c1ccccc1NS(=O)(=O)c1ccc(S(=O)(=O)N(C)C)cc1)C1CCCC(F)(F)C1 (stereo not drawn) [Compound 104, N1-(2-((3,3-difluorocyclohexyl) (methyl)amino)phenyl)-N4,N4-dimethylbenzene-1,4-disulfonamide] | 573 nM | 715 nM | –
21 | CN(CC1(F)CCCCC1)c1ccccc1NS(=O)(=O)c1ccc(S(=O)(=O)N(C)C)cc1 [Compound 96, N1-(2-(((1-fluorocyclohexyl)methyl)(methyl)amino)phenyl)-N4,N4-dimethylbenzene-1,4-disulfonamide] | – | 247 nM | 140 nM
22 | CCN(c1ccccc1NS(=O)(=O)c1ccc(S(=O)(=O)N(C)C)cc1)C1CCCCC1 [Compound 60, N1-(2-(cyclohexyl(ethyl)amino)phenyl)-N4,N4-dimethylbenzene-1,4-disulfonamide] | – | 86.7 nM | –
